US20080207614A1, “QUINAZOLINE DERIVATIVES FOR THE TREATMENT AND PREVENTION OF DIABETES AND OBESITY” (SK CHEMICALS CO., LTD., priority 2004, published 2008)

Experiments:
C2C12 muscle cells = assay: Analysis of glucose absorption (2-deoxyglucose) in differentiated C2C12 muscle cells; type: cell-based; settings: test materials 10 μM, times relative to control group
In short: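 Uptake of 0.2 μCi 2-deoxyglucose over 20 min, counted radiometrically in lysed cells. Before tracer, compounds (10 μM) were applied for 30 min to C2C12 cells differentiated 6 days in 1% serum and equilibrated 3 h in 5 mM glucose KRB.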

AMPK = assay: Measurement of AMPK activity by Western blot in C2C12 cells; type: cell-based; set-up: key to AMPK activity (degree of phosphorylation of serine-79 and threonine-172): fold increase in threonine-172 phosphorylation; AMPK activity (degree of phosphorylation of serine-79): unit not given here; settings: 10 μM for 50 minutes; for AMPK activity (degree of phosphorylation of serine-79 and threonine-172): no superscript: Western blot of serine-79 and threonine-172 phosphorylation; for AMPK activity (class: degree of phosphorylation of threonine-172): strong/mild/weak; for AMPK activity (degree of phosphorylation of serine-79): footnote a: Western blot of serine-79 phosphorylation
In short: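 Western blot readout of AMPK Thr-172 and ACC Ser-79 phosphorylation, normalised against ERK, served as the activity measure. Cells were C2C12 after differentiation, treated 50 minutes with 10 μM test material. Grading by Thr-172 increase: ≥3-fold strong, 1-3-fold mild, <1-fold weak.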

COc1ccc(OC)c(CNc2nc(N3CCN(C)CC3)nc3ccccc23)c1 [Compound 298, (2,5-Dimethoxybenzyl)-[2-(4-methylpiperazino-1-yl)-quinazolino-4-yl]-amine]
Glucose absorption (C2C12 muscle cells): 0.6
AMPK activity (degree of phosphorylation of serine-79 and threonine-172) (AMPK): 0.7

Fc1ccc(CCNc2nc(-c3ccccc3)nc3ccccc23)cc1F [Compound 128, [2-(3,4-Difluorophenyl)-ethyl]-(2-phenylquinazolino-4-yl)-amine]
Glucose absorption (C2C12 muscle cells): 2.3
AMPK activity (degree of phosphorylation of serine-79 and threonine-172) (AMPK): 1.7
AMPK activity (class: degree of phosphorylation of threonine-172) (AMPK): strong (“strong” means that the degree of phosphorylation of threonine-172 increased by 3 times or more)

COc1cc(CNc2ncnc3ccccc23)cc(OC)c1OC [Compound 411, Quinazolino-4-yl-(3,4,5-trimethoxybenzyl)-amine]
Glucose absorption (C2C12 muscle cells): 1.2
AMPK activity (degree of phosphorylation of serine-79 and threonine-172) (AMPK): 1.8

OCCOCCNc1nc(-c2ccccc2)nc2ccccc12 [Compound 1, 2-[2-(2-Phenylquinazolino-4-ylamino)-ethoxy]-ethanol]
Glucose absorption (C2C12 muscle cells): 1.7
AMPK activity (degree of phosphorylation of serine-79) (AMPK): 6.0^a

COc1ccc(OC)c(CNc2ncnc3ccccc23)c1 [Compound 413, (2,5-Dimethoxybenzyl)-quinazolino-4-ylamine]
Glucose absorption (C2C12 muscle cells): 1.2
AMPK activity (degree of phosphorylation of serine-79 and threonine-172) (AMPK): 1.7

COc1ccc(OC)c(CNc2nc(C(OC)c3ccccc3)nc3ccccc23)c1 (stereo not drawn) [Compound 369, (2,5-Dimethoxybenzyl)-[2-(methoxyphenylmethyl)-quinazolino-4-yl]-amine]
Glucose absorption (C2C12 muscle cells): 1.1
AMPK activity (degree of phosphorylation of serine-79 and threonine-172) (AMPK): 4.5

Cc1nc(NCCc2cccc(F)c2)c2ccccc2n1 [Compound 172, [2-(3-Fluorophenyl)-ethyl]-(2-methylquinazolino-4-yl)-amine]
Glucose absorption (C2C12 muscle cells): 2.6
AMPK activity (degree of phosphorylation of serine-79 and threonine-172) (AMPK): 4.4
AMPK activity (class: degree of phosphorylation of threonine-172) (AMPK): strong (“strong” means that the degree of phosphorylation of threonine-172 increased by 3 times or more)

COc1cc(CNc2nc(C(C)C)nc3ccccc23)cc(OC)c1 [Compound 323, (3,5-Dimethoxybenzyl)-(2-isopropylquinazolino-4-yl)-amine]
Glucose absorption (C2C12 muscle cells): 1.1
AMPK activity (degree of phosphorylation of serine-79 and threonine-172) (AMPK): 1.2

c1ccc(CCCCNc2nc(-c3ccccn3)nc3ccccc23)cc1 [Compound 228, (4-Phenylbutyl)-(2-pyridino-2-ylquinazolino-4-yl)-amine]
Glucose absorption (C2C12 muscle cells): 2.1
AMPK activity (degree of phosphorylation of serine-79 and threonine-172) (AMPK): 7.9
AMPK activity (class: degree of phosphorylation of threonine-172) (AMPK): strong (“strong” means that the degree of phosphorylation of threonine-172 increased by 3 times or more)

CCSc1nc(NCc2ccc(OC)cc2)c2ccccc2n1 [Compound 25, (2-Ethylsulfanylquinazolino-4-yl)-(4-methoxybenzyl)-amine]
Glucose absorption (C2C12 muscle cells): 2.6
AMPK activity (class: degree of phosphorylation of threonine-172) (AMPK): strong (“strong” means that the degree of phosphorylation of threonine-172 increased by 3 times or more)

O=[N+]([O-])c1ccc2ncnc(Nc3ccccc3)c2c1 [Compound 13, (6-Nitro-quinazolino-4-yl)-phenylamine]
Glucose absorption (C2C12 muscle cells): 0.7
AMPK activity (degree of phosphorylation of serine-79) (AMPK): 4.2^a

CCCc1nc(NCc2cccc(OC)c2OC)c2ccccc2n1 [Compound 397, (2,3-Dimethoxybenzyl)-(2-propylquinazolino-4-yl)-amine]
Glucose absorption (C2C12 muscle cells): 1.3
AMPK activity (degree of phosphorylation of serine-79 and threonine-172) (AMPK): 6.5

COc1cccc(CNc2nc(C(C)c3ccccc3)nc3ccccc23)c1OC (stereo not drawn) [Compound 375, (2,3-Dimethoxybenzyl)-[2-(1-phenylethyl)-quinazolino-4-yl]-amine]
Glucose absorption (C2C12 muscle cells): 1.1
AMPK activity (degree of phosphorylation of serine-79 and threonine-172) (AMPK): 5.2

COc1cc(CNc2nc(C3CC3)nc3ccccc23)cc(OC)c1 [Compound 387, (2-Cyclopropylquinazolino-4-yl)-(3,5-dimethoxybenzyl)-amine]
Glucose absorption (C2C12 muscle cells): 1.2
AMPK activity (degree of phosphorylation of serine-79 and threonine-172) (AMPK): 1.5

COc1ccccc1CNc1nc(C(OC)c2ccccc2)nc2ccccc12 (stereo not drawn) [Compound 360, (2-Methoxybenzyl)-[2-(methoxyphenylmethyl)-quinazolino-4-yl]-amine]
Glucose absorption (C2C12 muscle cells): 1.4
AMPK activity (degree of phosphorylation of serine-79 and threonine-172) (AMPK): 2.2

CC(C)c1nc(NCc2cccc3ccccc23)c2ccccc2n1 [Compound 181, (2-Isopropylquinazolino-4-yl)-naphthaleno-1-ylmethylamine]
Glucose absorption (C2C12 muscle cells): 3.1
AMPK activity (degree of phosphorylation of serine-79 and threonine-172) (AMPK): 3.1
AMPK activity (class: degree of phosphorylation of threonine-172) (AMPK): strong (“strong” means that the degree of phosphorylation of threonine-172 increased by 3 times or more)

C=CCNc1ncnc2cc(OCC)c(OCC)cc12 [Compound 16, Allyl-(6,7-diethoxyquinazolino-4-yl)-amine]
Glucose absorption (C2C12 muscle cells): 1.3
AMPK activity (degree of phosphorylation of serine-79) (AMPK): 3.1^a

CCC(CC)Nc1nc(-c2ccccc2)nc2ccccc12 [Compound 121, (1-Ethylpropyl)-(2-phenylquinazolino-4-yl)-amine]
Glucose absorption (C2C12 muscle cells): 2.4
AMPK activity (degree of phosphorylation of serine-79 and threonine-172) (AMPK): 2.2
AMPK activity (class: degree of phosphorylation of threonine-172) (AMPK): strong (“strong” means that the degree of phosphorylation of threonine-172 increased by 3 times or more)

CC1CCCC(Nc2nc(-c3ccccc3)nc3ccccc23)C1C (stereo not drawn) [Compound 143, (2,3-Dimethylcyclohexyl)-(2-phenylquinazolino-4-yl)-amine]
Glucose absorption (C2C12 muscle cells): 2.3
AMPK activity (degree of phosphorylation of serine-79 and threonine-172) (AMPK): 2.4
AMPK activity (class: degree of phosphorylation of threonine-172) (AMPK): strong (“strong” means that the degree of phosphorylation of threonine-172 increased by 3 times or more)

CC(C)c1nc(NCc2ccc3c(c2)OCO3)c2ccccc2n1 [Compound 182, Benzo[1,3]dioxol-5-ylmethyl-(2-isopropylquinazolino-4-yl)-amine]
Glucose absorption (C2C12 muscle cells): 3.1
AMPK activity (degree of phosphorylation of serine-79 and threonine-172) (AMPK): 2.9
AMPK activity (class: degree of phosphorylation of threonine-172) (AMPK): strong (“strong” means that the degree of phosphorylation of threonine-172 increased by 3 times or more)

CC(C)(C)c1nc(NCCCCc2ccccc2)c2ccccc2n1 [Compound 192, (2-tert-Butylquinazolino-4-yl)-(4-phenylbutyl)-amine]
Glucose absorption (C2C12 muscle cells): 2.1
AMPK activity (degree of phosphorylation of serine-79 and threonine-172) (AMPK): 6.5
AMPK activity (class: degree of phosphorylation of threonine-172) (AMPK): strong (“strong” means that the degree of phosphorylation of threonine-172 increased by 3 times or more)

CC(C)Nc1nc(C(Cl)(Cl)Cl)nc2ccccc12 [Compound 2, Isopropyl-(2-trichloromethylquinazolino-4-yl)-amine]
Glucose absorption (C2C12 muscle cells): 1.3
AMPK activity (degree of phosphorylation of serine-79) (AMPK): 4.2^a

COc1cccc(CNc2nc(C(C)C)nc3ccccc23)c1 [Compound 176, (2-Isopropylquinazolino-4-yl)-(3-methoxybenzyl)-amine]
Glucose absorption (C2C12 muscle cells): 2.4
AMPK activity (degree of phosphorylation of serine-79 and threonine-172) (AMPK): 4.4
AMPK activity (class: degree of phosphorylation of threonine-172) (AMPK): strong (“strong” means that the degree of phosphorylation of threonine-172 increased by 3 times or more)

COc1cccc(CNc2ncnc3ccccc23)c1 [Compound 405, (3-Methoxybenzyl)-quinazolino-4-ylamine]
Glucose absorption (C2C12 muscle cells): 2.2
AMPK activity (degree of phosphorylation of serine-79 and threonine-172) (AMPK): 2.7

COc1cc(OC)c(CNc2nc(C(C)c3ccccc3)nc3ccccc23)c(OC)c1 (stereo not drawn) [Compound 381, [2-(1-Phenylethyl)-quinazolino-4-yl]-(2,4,6-trimethoxybenzyl)-amine]
Glucose absorption (C2C12 muscle cells): 1.2
AMPK activity (degree of phosphorylation of serine-79 and threonine-172) (AMPK): 4.0

CCOc1cc2ncnc(NCc3cccc4ccccc34)c2cc1OCC [Compound 14, (6,7-Diethoxyquinazolino-4-yl)-naphthaleno-1-ylmethylamine]
Glucose absorption (C2C12 muscle cells): 1.2
AMPK activity (degree of phosphorylation of serine-79) (AMPK): 3.6^a

COc1ccccc1CNc1nc(C2CC2)nc2ccccc12 [Compound 382, (2-Cyclopropylquinazolino-4-yl)-(2-methoxybenzyl)-amine]
Glucose absorption (C2C12 muscle cells): 1.2
AMPK activity (degree of phosphorylation of serine-79 and threonine-172) (AMPK): 2.2

COc1cccc(CNc2nc(C3CC3)nc3ccccc23)c1 [Compound 383, (2-Cyclopropylquinazolino-4-yl)-(3-methoxybenzyl)-amine]
Glucose absorption (C2C12 muscle cells): 1.4
AMPK activity (degree of phosphorylation of serine-79 and threonine-172) (AMPK): 2.2

CCSc1nc(NCCc2cccc(F)c2)c2ccccc2n1 [Compound 10, (2-Ethylsulfanylquinazolino-4-yl)-[2-(3-fluorophenyl)-ethyl]-amine]
Glucose absorption (C2C12 muscle cells): 1.5
AMPK activity (degree of phosphorylation of serine-79) (AMPK): 5.3^a

c1ccc2c(NCc3ccc4c(c3)OCO4)ncnc2c1 [Compound 407, Benzo[1,3]dioxol-5-ylmethylquinazolino-4-ylamine]
Glucose absorption (C2C12 muscle cells): 1.5
AMPK activity (degree of phosphorylation of serine-79 and threonine-172) (AMPK): 1.3

Fc1ccccc1CCNc1nc(-c2ccccc2)nc2ccccc12 [Compound 140, [2-(2-Fluorophenyl)-ethyl]-(2-phenylquinazolino-4-yl)-amine]
Glucose absorption (C2C12 muscle cells): 2.7
AMPK activity (degree of phosphorylation of serine-79 and threonine-172) (AMPK): 3.1
AMPK activity (class: degree of phosphorylation of threonine-172) (AMPK): strong (“strong” means that the degree of phosphorylation of threonine-172 increased by 3 times or more)
